Test results reported in PMC12677599 (Advanced Science, 2025).
Where a SMILES comes first, the peptide text is derived from it. Where no end group is shown, it is not given here. [ ]: non-standard residue; d: D form. The star is where a group is joined. PEG4 = NCCOCCOCCOCCOCCC(=O)O; Piperidide = C1CCN(*)CC1

Columns and labels:
[1] = Compound remaining evaluation in human serum; assay type: in vitro ADME; settings: 50% human serum, 37 °C, HPLC peak area, n = 2; up to 6 h (239-4-Ac) or 24 h
Description: Compound solutions (50 µL, 3 mM) were mixed with human serum (50 µL) and incubated for 0, 2, 4, 6, 12, and 24 h at 37 °C. Ethanol (250 µL) was added to precipitate serum proteins, and the samples were centrifuged at 14 000 × g for 20 min at 4 °C. Subsequently, 150 µL of supernatant of each sample was analyzed with analytical HPLC and ESI‐MS/MS. HPLC condition: gradient: 100% solution A to 0% solution A from 0 to 60 min; flow rate: 1 mL min^−1; detector wavelength: 214 nm. Each sample had two replicates.
The compound remaining ratio was calculated as (7) Compoundremaining%=CompoundPeakAreanotat0h/CompoundPeakAreaat0h×100%

[2] = tested on: erythrocytes; assay type: cell-based; settings: red cells of horse, 2 h
Description: Defibrinated horse blood (1 mL) was washed 3 times with 0.9% NaCl solution to remove plasma and then resuspended in 20 mL of 0.9% NaCl solution to obtain a red blood cell (RBC) suspension. Aliquots of the RBC suspension (100 µL) were incubated with 100 µL of compound solutions at concentrations ranging from 100 to 1.5625 µM (twofold serial dilution) for 2 h at 37 °C. RBCs treated with 0.9% NaCl solution and 1% Triton X‐100 solution served as blank and positive controls, respectively. Subsequently, the samples were centrifuged at 900 × g for 10 min, and the absorbance of the supernatant was measured at 570 nm.
The hemolysis ratio was calculated as (2) Hemolysis%=ODSamplegroup−ODBlank/ODPositivegroup−ODBlank×100%

[3] = tested on: HaCaT normal cell line; assay type: cell-based; settings: 24 h
Description: (§1) MTT assay was conducted as previously described.^[ [44] ^] Tumor cell lines (NCI‐H460, NCI‐H838, HT‐1080, MCF‐7, PC‐3, U‐251‐MG, and U‐87 MG) were seeded in 96‐well plates at a density of 8000 cells per well in a volume of 100 µL and cultured for 24 h. Normal cell lines (HaCaT, HMEC‐1, MRC‐5, and HEK‐293) were seeded in 96‐well plates at a density of 10 000 cells per well in a volume of 100 µL and cultured for 48 h. After that, only tumor cell lines were starved with 100 µL of SFM for a further 4–6 h. Subsequently, cells were treated with 100 µL of compound solutions with different concentrations for 24 h. Cells treated with SFM and 0.5% DMSO in SFM served as blank control and growth control, respectively. Ten µL of MTT solution (5 mg mL^−1) was added to each well, followed by an additional incubation period of 2 h for tumor cells and 4 h for normal cells. Finally, the solvent in each well was swapped with 100 µL of DMSO to dissolve the formazan crystals. The absorbance was measured by the plate reader at 570 nm.
(§2) The cell viability was calculated (1) Cellviability%=ODSamplegroup−ODBlank/ODGrowthgroup−ODBlank×100%

[4] = tested on: MRC-5 normal cell line; assay type: cell-based; settings: 24 h
Description: as §1, §2

[5] = tested on: HMEC-1 normal cell line; assay type: cell-based; settings: 24 h
Description: as §1, §2

[6] = tested on: HEK-293 normal cell line; test: cells; assay type: cell-based; settings: 24 h
Description: as §1, §2

[7] = tested on: H460 cell line; test: cells; assay type: cell-based; settings: 24 h
Description: as §1, §2

[8] = tested on: H838 cell line; assay type: cell-based; settings: 24 h
Description: as §1, §2

[9] = tested on: HT-1080 cell line; assay type: cell-based; settings: 24 h
Description: as §1, §2

[10] = tested on: Paclitaxel-resistance (DR-PTX) H460 cell line; assay type: cell-based; settings: 24 h
Description: as §1
(§3) Wild type H460 cells were cultured in a T‐75 flask and exposed to 30 µM of cisplatin. Cells were passed when the confluency reached 90%. The IC50 value of cisplatin on this cell line was evaluated every two passages. After the IC50 value was higher than 500 µM, the cultured medium was changed to normal CGM, and the cell line was cultured for another three passages. The IC50 value was evaluated again to make sure the resistance was stable. The other three resistance cell lines establishment process was similar. […] Parental NCI‐H460 cells were exposed to 10 µM 5‐fluorouracil, 2.5 µM paclitaxel, or 2.5 µM etoposide to generate 5‐fluorouracil‐resistant, paclitaxel‐resistant, and etoposide‐resistant cell lines, respectively.

[11] = tested on: 5-Fluorouracil-resistance H460 cell line; assay type: cell-based; settings: 24 h
Description: as §1, §3

[12] = tested on: Cisplatin-resistance H460 cell line; assay type: cell-based; settings: 24 h
Description: as §1, §3

[13] = tested on: Etoposide-resistance (DR-EPT) H460 cell line; assay type: cell-based; settings: 24 h
Description: as §1, §3

CC[C@H](C)[C@H](NC(=O)[C@H](CCCCN)NC(=O)[C@@H]1CCCN1C(=O)[C@H](CC(C)C)NC(=O)[C@@H](NC(=O)[C@H](CO)NC(=O)[C@H](CCC(=O)N1CCCCC1)NC(=O)[C@H](CC(C)C)NC(=O)[C@H](CC(=O)O)NC(=O)[C@H](CC(=O)O)NC(=O)[C@H](Cc1ccccc1)NC(=O)[C@@H](NC(=O)[C@H](CCCCN)NC(=O)[C@@H]1CCCN1C(=O)[C@H](Cc1ccccc1)NC(=O)[C@H](Cc1ccccc1)NC(=O)[C@H](CCCCNC(C)=O)NC(=O)[C@H](C)N)[C@@H](C)CC)[C@@H](C)CC)C(=O)N[C@@H](CC(C)C)C(N)=O [239-4-Ac] (H-AK(Ac)FFPKIFDDLE(Piperidide)SILPKIL-NH2)
degradation in human serum, comparison in words [1]: significantly more prone to degradation

CC[C@H](C)[C@H](NC(=O)[C@H](CCCCN)NC(=O)[C@@H]1CCCN1C(=O)[C@H](CC(C)C)NC(=O)[C@@H](NC(=O)[C@H](CO)NC(=O)[C@H](CCC(=O)N1CCCCC1)NC(=O)[C@H](CC(C)C)NC(=O)[C@H](CC(=O)O)NC(=O)[C@H](CC(=O)O)NC(=O)[C@H](Cc1ccccc1)NC(=O)[C@@H](NC(=O)[C@H](CCCCN)NC(=O)[C@@H]1CCCN1C(=O)[C@H](Cc1ccccc1)NC(=O)[C@H](Cc1ccccc1)NC(=O)[C@H](CCCCN)NC(=O)[C@H](C)N)[C@@H](C)CC)[C@@H](C)CC)C(=O)N[C@@H](CC(C)C)C(=O)NCC(=O)N1CCC[C@H]1C(=O)N[C@@H](CC(C)C)C(=O)NCC(=O)N[C@@H](CC(C)C)C(=O)N[C@@H](C)C(=O)NCC(=O)NCCOCCOCCOCCOCCC(=O)NCCOCCOCCOCCOCCC(=O)NCCOCCOCCOCCOCCC(=O)NCCOCCOCCOCCOCCC(N)=O [compound 247] (H-AKFFPKIFDDLE(Piperidide)SILPKILGPLGLAG[PEG4][PEG4][PEG4][PEG4]-NH2)
HC10 (concentration causing 10% of erythrocytes lysis) [2]: >100 µM
IC50 [3]: > 100 µM
IC50 [4]: > 100 µM
IC50 [5]: > 100 µM
IC50 [6]: 51.9 ± 5.64 µM
IC50 [7]: 29.2 ± 1.33 µM

FFPKIFDDLFSILPKIL-NH2 [compound 228]
HC10 (concentration causing 10% of erythrocytes lysis) [2]: 14.57 µM
IC50 [3]: 34 ± 2.66 µM
IC50 [8]: 26.4 ± 1.78 µM
IC50 [9]: 30.5 ± 6.05 µM
IC50 [4]: 34.1 ± 2.32 µM
IC50 [5]: 30.7 ± 3.14 µM
IC50 [6]: 13.8 ± 1.42 µM
IC50 [7]: 17.5 ± 0.91 µM

FFPKIFDDLSSILPKIL-NH2 [compound 266]
HC10 (concentration causing 10% of erythrocytes lysis) [2]: >100 µM
IC50 [3]: > 100 µM
IC50 [8]: > 100 µM
IC50 [9]: > 100 µM
IC50 [4]: > 100 µM
IC50 [5]: > 100 µM
IC50 [6]: > 100 µM
IC50 [7]: > 100 µM

FFPLIFGALSSILPKIL-NH2 [compound 111, Temporin‐HLa]
HC10 (concentration causing 10% of erythrocytes lysis) [2]: 6.59 µM
IC50 [3]: 13.6 ± 0.91 µM
IC50 [8]: 11 ± 1.06 µM
IC50 [9]: 7.37 ± 0.7 µM
IC50 [4]: 26.3 ± 2.59 µM
IC50 [5]: 13.5 ± 0.8 µM
IC50 [6]: 8.03 ± 1.1 µM
IC50 [7]: 6.03 ± 0.18 µM
IC50 [10]: 5.54 ± 0.04 µM
IC50 [11]: 5.14 ± 0.22 µM
IC50 [12]: 5.24 ± 0.15 µM
IC50 [13]: 5.17 ± 0.16 µM
